Measured values as given in patent US6767741B1, “Metal binding compounds and their use in cell culture medium compositions” (Invitrogen Corporation, priority 1999, dated 2004).

Tests used:
Format in all cases: cell-based
[1] = tested on: mammalian cells; test: Replacement of transferrin as iron carrier in culture media (general statements); settings: statement in words
From the text: By “compatible ingredients” is also meant those media nutrients which can be maintained together in solution and form a “stable” combination. […] Ingredients are also considered “stable” if degradation cannot be detected or when degradation occurs at a slower rate when compared to decomposition of the same ingredient in a 1×cell culture media formulation. For example, in 1×media formulations glutamine is known to degrade into pyrolidone carboxylic acid and ammonia. Glutamine in combination with divalent cations are considered “compatible ingredients” since little or no decomposition of the glutamine can be detected over time in solutions or combinations in which both glutamine and divalent cations are present. See U.S. Pat. No. 5,474,931.
The metal-binding compounds used in accordance with the present invention may be obtained commercially (e.g., from Sigma,St. Louis, Mo. and other well-known commercial sources), or may be prepared synthetically according to the guidance provided by the technical and patent publications referenced herein, the disclosures of which are incorporated herein by reference in their entireties.

[2] = tested on: 293 cells; test: Growth of 293 cells in transferrin-free 293 SFM with metal binding compounds; settings: third passage
Procedure: Semi-confluent adherent cultures of 293 Cells (ATCC, CRL 1573) are readily adapted to suspension culture. The cells are first detached with a solution of Trypsin-EDTA (0.05% Trypsin, 0.53 mM Na4EDTA), and then resuspended in conventional medium supplemented with 10% FBS to inhibit the trypsin. The resuspended cells are centrifuged at 200×g for five minutes. The cell pellet is resuspended in 293 SFM (available from Life Technologies, Rockville, Md.) the formulation of which is described in WO 98/08934 which is specifically incorporated herein by reference. Alternatively, the cells may be detached with Versene (Na4EDTA, 0.53 mM) and resuspended in 293 SFM.
The initial seeding density of the 293 cells after conversion to suspension culture is 1×10^6 cells/mL. The cells are shaken on a rotary shaker at 150 rpm in a 37° C. incubator equilibrated with 8% CO2-92% air. When the cells reach a density of 1.5×10^6 cells/mL they are diluted with 293 SFM to a density of 3.0×10^5 cells/mL. Because 293 cells have a tendency to aggregate, the cells may be vortexed vigorously for approximately 45 seconds to obtain a predominantly single cell suspension at the time of passaging and counting. After several passages in suspension culture, the maximum achievable density may be determined.
The ability of metal binding compounds to support cellular growth was evaluated using 293 cells maintained in 293 SFM (Life Technologies, Rockville, Md.) without transferrin or metal binding compound. Stock cultures containing 5 μg/mL human holo-transferrin were prepared in 293 SFM. For metal binding compound evaluation, 293 cells were established in 125 mL shaker flasks at an initial viable seeding density of 2×10^5 cells/mL in a final volume of 20 mL. All cultures were maintained at 37° C. in humidified air containing 8% CO2. To eliminate transferrin carry-over effects, cells were subcultured at 4 day intervals for a total of three passages. At each subculturing, cells were seeded at a density of 2×10^5 cells/mL. Positive control cultures contained 5 μg/mL human holo-transferrin while negative control cultures were established in the absence of either transferrin or metal binding compound. Metal binding compound stocks were prepared at 0.1M-0.2M in ddH2O and solubilized when necessary using 5N NaOH or HCl. Iron complexes were established using 0.2M metal binding compound and iron stocks mixed 1:1 (v/v) and incubated for 5-10 minutes at 22° C. All solutions containing metal binding compounds were filter sterilized using a 0.22 μm Millex-GV filter prior to addition to transferrin and serum-free media.
In most cases, metal binding compounds were evaluated either alone or in combination with ferric chloride or ferrous sulfate at 25 μM, 50 μM and 100 μM. When used in combination, the metal binding compounds were used in equimolar concentration with iron ions. Values in the table represent the mean percentage of control growth for duplicate cultures determined at the third passage.
(§1) When added to the medium formulation un-complexed, the metal binding compound is listed alone, when added as a complex with a transition metal, the source of the transition metal is listed with the metal binding compound.

[3] = tested on: CHO cells; test: Growth of CHO cells in transferrin-free CD CHO medium with metal binding compounds; settings: third passage
Procedure: The ability of metal binding compounds to support cellular growth in the absence of transferrin was evaluated using CHO cells maintained in CD CHO medium (Life Technologies, Rockville, Md., the formulation of which is described in WO 98/08934). Stock cultures containing 5 μg/mL human holo-transferrin were prepared in CD CHO medium. For metal binding compound evaluation, CHO cells were established in 125 mL shaker flasks at an initial viable seeding density of 1×10^5 cells/mL in a final volume of 20 mL. All cultures were maintained at 37° C. in humidified air containing 8% CO2. To eliminate transferrin carry-over effects, cells were subcultured at 4 day intervals for a total of three passages. Positive control cultures contained 5 μg/mL human holo-transferrin while negative control cultures were established in the absence of either transferrin or metal binding compound. Metal binding compound stocks were prepared at 0.1M-0.2M in ddH2O and solubilized when necessary using 5N NaOH or HCl. Iron complexes were established using 0.2M metal binding compound and iron stocks mixed 1:1 (v/v) and incubated for 5-10 minutes at 22° C. All solutions containing metal binding compounds were filter sterilized using a 0.22 μm Millex-GV filter prior to addition to transferrin and serum-free media.
(§2) In most cases, metal binding compounds were evaluated either alone or in combination with ferric chloride or ferrous sulfate at 25 μM, 50 μM and 100 μM. Values in the table represent the mean percentage of control growth for duplicate cultures determined at the third passage.
The ability of various metal binding compounds to substitute for transferrin in the culture of CHO cells was determined. When added to the medium formulation un-complexed, the metal binding compound is listed alone, when added as a complex with a transition metal, the source of the transition metal is listed with the metal binding compound.

[4] = tested on: Sp2/0 cells; test: Growth of Sp2/0 cells in transferrin-free CD Hybridoma medium with metal binding compounds; settings: third passage
Procedure: The ability of iron metal binding compounds to support cellular growth in the absence of transferrin was evaluated using Sp2/0 cells maintained in CD Hybridoma medium (Life Technologies, Rockville, Md.). Stock cultures containing 5 μg/mL human holo-transferrin were prepared in CD Hybridoma medium. For metal binding compound evaluation, Sp2/0 cells were established at an initial viable cell density of 0.5×10^5 cells/mL in stationary culture using 75 cm^2 tissue culture flasks in a final volume of 20 mL. All cultures were maintained at 37° C. in humidified air containing 8% CO2. To eliminate transferrin carry-over effects, cells were subcultured at the same seeding density at 4 day intervals for a total of three passages. Positive control cultures contained 5 μg/mL human holotransferrin while negative control cultures were established in the absence of either transferrin or metal binding compound. Metal binding compound stocks were prepared at 0.1M-0.2M in ddH2O and solubilized when necessary using 5N NaOH or HCl. Iron complexes were established using 0.2M metal binding compound and iron stocks mixed 1:1 (v/v) and incubated for 5-10 minutes at 22° C. All solutions containing metal binding compounds were filter sterilized using a 0.22 μm Millex-GV filter prior to addition to transferrin and serum-free media.
as §2, §1

[5] = 25 μM, control = 5 μg/mL human holo-transferrin, duplicate cultures
[6] = 50 μM, control = 5 μg/mL human holo-transferrin, duplicate cultures
[7] = 100 μM, control = 5 μg/mL human holo-transferrin, duplicate cultures
[8] = 5 μM, control = holo-transferrin
[9] = 10 μM, control = holo-transferrin
[10] = 20 μM, control = holo-transferrin

| Compound | ability to replace transferrin as iron carrier in culture media [1] | mean percentage of control growth [2, 5] [%] | mean percentage of control growth [2, 6] [%] | mean percentage of control growth [2, 7] [%] | mean percentage of control growth [3, 5] [%] | mean percentage of control growth [3, 6] [%] | mean percentage of control growth [3, 7] [%] | mean percentage of control growth [4, 5] [%] | mean percentage of control growth [4, 6] [%] | mean percentage of control growth [4, 7] [%] | mean percentage of control growth [2, 8] [%] | mean percentage of control growth [2, 9] [%] | mean percentage of control growth [2, 10] [%] | mean percentage of control growth [3, 8] [%] | mean percentage of control growth [3, 9] [%] | mean percentage of control growth [3, 10] [%] | mean percentage of control growth [4, 8] [%] | mean percentage of control growth [4, 9] [%] | mean percentage of control growth [4, 10] [%] |
| --- | --- | --- | --- | --- | --- | --- | --- | --- | --- | --- | --- | --- | --- | --- | --- | --- | --- | --- | --- |
| OC[C@@H](O)[C@@H](O)[C@H](O)[C@@H](O)CO [sorbitol] | used successfully to replace transferrin |  |  |  |  |  |  |  |  |  |  |  |  |  |  |  |  |  |  |
| Ferrous Gluconate · Ascorbic Acid Phosphate |  | 86 | 109 | 101 | 91 | 61 | 28 | 92 | 94 | 93 |  |  |  |  |  |  |  |  |  |
| O=S(=O)([O-])[O-].[Fe+2] [Ferrous Sulfate, reference compound] |  | 71 | 60 | 41 | 88 | 79 | 38 | 91 | 103 | 94 |  |  |  |  |  |  |  |  |  |
| NC(=O)CCC(N)C(=O)O.[Cl][Fe]([Cl])[Cl] (centres unmarked) [Glutamine · Ferric Chloride] | can be substituted for transferrin |  |  |  |  |  |  | 36 | 55 | 65 |  |  |  |  |  |  |  |  |  |
| O=C(O)CN(CC(=O)O)CC(=O)O.[Cl][Fe]([Cl])[Cl] [Nitriloacetic Acid · Ferric Chloride] |  | 100 | 118 | 74 | 127 | 107 | 107 | 88 | 87 | 70 |  |  |  |  |  |  |  |  |  |
| CC(=O)N(O)CCCCCNC(=O)CCC(=O)N(O)CCCCCNC(=O)CCC(=O)N(O)CCCCCN.CS(=O)(=O)O.[Cl][Fe]([Cl])[Cl] [Deferoxamine Mesylate · Ferric Chloride] |  |  |  |  |  |  |  |  |  |  | 101 | 120 | 127 | 50 | 74 | 52 | 0 | 0 | 0 |
| [Cl][Fe]([Cl])[Cl] [Ferric Chloride, reference compound] |  | 87 | 91 | 109 | 56 | 85 | 101 | 55 | 73 | 74 |  |  |  |  |  |  |  |  |  |
| [Cl][Fe]([Cl])[Cl].[O-][n+]1cccc(O)c1 [3-Hydroxypyridine-N-Oxide · Ferric Chloride] |  | 77 | 72 | 81 | 77 | 66 | 101 | 55 | 54 | 57 |  |  |  |  |  |  |  |  |  |
| NC(CO)C(=O)NO.[Cl][Fe]([Cl])[Cl] (centres unmarked) [Serine Hydroxamate · Ferric Chloride] |  | 68 | 65 | 51 | 106 | 121 | 124 | 46 | 66 | 62 |  |  |  |  |  |  |  |  |  |
